Measurements from US11458123B2 (Arvinas, Inc., priority 2016, dated 2022).

system: tau protein; assay: Tau protein in vitro degradation assay (Western blot, Tau-13 antibody); format: cell-based, human; settings: SK-N-SH cells; 72 hours of incubation; tested at 300 nM, 100 nM, 33 nM and 11 nM; Western blot, Tau-13 antibody
Outline: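 Tau degradation read by Tau-13 Western blot (detects all human tau forms) of SDS-PAGE-resolved lysates from SK-N-SH cells. Cells were plated at least 18 h before 72 h exposure to PROTACs at either 1000/300/100 nM or 300/100/33/11 nM.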

Row | SMILES | Degradation activity* (highest amount of degradation observed at any dosage; tau protein remaining) | Degradation activity (tau protein remaining; highest amount of degradation observed at any dosage)
1 | Cn1c2ccncc2c2ccc(-c3ccc(O[C@H]4C[C@H](OCCCCOCCCCOC5CN(c6ccc7c(c6)C(=O)N(C6CCC(=O)NC6=O)C7=O)C5)C4)nc3)cc21 (stereo partly shown) [Compound 162, 2-(2,6-dioxopiperidin-3-yl)-5-(3-(4-(4-((1r,3r)-3-((5-(5-methyl-5H-pyrido[4,3-b]indol-7-yl)pyridin-2-yl)oxy)cyclobutoxy)butoxy)butoxy)azetidin-1-yl)isoindoline-1,3-dione] | A (≤50% tau protein remaining after 72 hours of incubation with the test compound) | 
2 | Cn1c2ccncc2c2ccc(-c3ccc(N4CCC(CN5CCN(c6ccc7c(c6)CN(C6CCC(=O)NC6=O)C7=O)CC5)CC4)nc3)cc21 (stereo not shown) [Compound 127, 3-(5-(4-((1-(5-(5-methyl-5H-pyrido[4,3-b]indol-7-yl)pyridin-2-yl)piperidin-4-yl)methyl)piperazin-1-yl)-1-oxoisoindolin-2-yl)piperidine-2,6-dione] | C (>80% tau protein remaining after 72 hours of incubation with the test compound) | 
3 | O=C1CCC(N2C(=O)c3ccc(OCCCCCN4CCC(O[C@H]5C[C@H](Oc6ccc(-c7ccc8c(c7)[nH]c7ccncc78)cn6)C5)CC4)cc3C2=O)C(=O)N1 (stereo partly shown) [Compound 65, 5-((5-(4-((1r,3r)-3-((5-(5H-pyrido[4,3-b]indol-7-yl)pyridin-2-yl)oxy)cyclobutoxy)piperidin-1-yl)pentyl)oxy)-2-(2,6-dioxopiperidin-3-yl)isoindoline-1,3-dione] | C (>80% tau protein remaining after 72 hours of incubation with the test compound) | 
4 | Cn1c2ccncc2c2ccc(-c3ccc(O[C@H]4C[C@H](OCCCCCCN5CCN(c6ccc7c(c6)C(=O)N(C6CCC(=O)NC6=O)C7=O)CC5)C4)nc3)cc21 (stereo partly shown) [Compound 78, 2-(2,6-dioxopiperidin-3-yl)-5-(4-(6-((1r,3r)-3-((5-(5-methyl-5H-pyrido[4,3-b]indol-7-yl)pyridin-2-yl)oxy)cyclobutoxy)hexyl)piperazin-1-yl)isoindoline-1,3-dione] | C (>80% tau protein remaining after 72 hours of incubation with the test compound) | 
5 | O=C1CCC(N2C(=O)c3ccc(OCC#Cc4ccc(O[C@H]5C[C@H](Oc6ccc(-c7ccc8c(c7)[nH]c7ccncc78)cn6)C5)cc4)cc3C2=O)C(=O)N1 (stereo partly shown) [Compound 189, 5-((3-(4-((1r,3r)-3-((5-(5H-pyrido[4,3-b]indol-7-yl)pyridin-2-yl)oxy)cyclobutoxy)phenyl)prop-2-yn-1-yl)oxy)-2-(2,6-dioxopiperidin-3-yl)isoindoline-1,3-dione] |  | B (≤80% and >50% tau protein remaining after 72 hours of incubation with the test compound)
6 | Cn1c2ccncc2c2ccc(-c3ccc(OCCOCCOCCOCCCCC(Oc4ccc5c(c4)C(=O)N(C4CCC(=O)NC4=O)C5=O)C(F)(F)F)nc3)cc21 (stereo not shown) [Compound 129, 2-(2,6-dioxopiperidin-3-yl)-5-((1,1,1-trifluoro-6-(2-(2-(2-((5-(5-methyl-5H-pyrido[4,3-b]indol-7-yl)pyridin-2-yl)oxy)ethoxy)ethoxy)ethoxy)hexan-2-yl)oxy)isoindoline-1,3-dione] | C (>80% tau protein remaining after 72 hours of incubation with the test compound) | 
7 | Cn1c2ccncc2c2ccc(-c3ccc(O[C@H]4C[C@@H](Oc5ccc(C#CCOC6CN(c7ccc8c(c7)C(=O)N(C7CCC(=O)NC7=O)C8=O)C6)nc5)C4)nc3)cc21 (stereo partly shown) [Compound 159, 2-(2,6-dioxopiperidin-3-yl)-5-(3-((3-(5-((1 s,3 s)-3-((5-(5-methyl-5H-pyrido[4,3-b]indol-7-yl)pyridin-2-yl)oxy)cyclobutoxy)pyridin-2-yl)prop-2-yn-1-yl)oxy)azetidin-1-yl)isoindoline-1,3-dione] | C (>80% tau protein remaining after 72 hours of incubation with the test compound) | 
8 | Cn1c2ccncc2c2ccc(-c3cnc(O[C@H]4C[C@H](Oc5ccc(C#CCOC6CN(c7ccc8c(c7)C(=O)N(C7CCC(=O)NC7=O)C8=O)C6)nc5)C4)c(C(F)(F)F)c3)cc21 (stereo partly shown) [Compound 118, 2-(2,6-dioxopiperidin-3-yl)-5-(3-((3-(5-((1r,3r)-3-((5-(5-methyl-5H-pyrido[4,3-b]indol-7-yl)-3-(trifluoromethyl)pyridin-2-yl)oxy)cyclobutoxy)pyridin-2-yl)prop-2-yn-1-yl)oxy)azetidin-1-yl)isoindoline-1,3-dione] | C (>80% tau protein remaining after 72 hours of incubation with the test compound) | 
9 | Cn1c2ccncc2c2ccc(-c3ccc(O[C@H]4C[C@H](N(C)C(=O)C56CC(COCCCCOc7ccc8c(c7)C(=O)N(C7CCC(=O)NC7=O)C8=O)(C5)C6)C4)nc3)cc21 (stereo partly shown) [Compound 199, 3-((4-((2-(2,6-dioxopiperidin-3-yl)-1,3-dioxoisoindolin-5-yl)oxy)butoxy)methyl)-N-methyl-N-((1r,3r)-3-((5-(5-methyl-5H-pyrido[4,3-b]indol-7-yl)pyridin-2-yl)oxy)cyclobutyl)bicyclo[1.1.1]pentane-1-carboxamide] |  | C (>80% tau protein remaining after 72 hours of incubation with the test compound)

same assay, conditions: SK-N-SH cells; 72 hours of incubation; tested at 1000 nM, 300 nM and 100 nM

Row | SMILES | Activity* (highest amount of degradation observed at any dosage, as tau protein remaining)
10 | Cc1ncsc1-c1ccc([C@H](C)NC(=O)[C@@H]2C[C@@H](O)CN2C(=O)[C@@H](NC(=O)COCCOCCOCCOCC(=O)N2CCN(c3ccn4c(n3)nc3ccccc34)CC2)C(C)(C)C)cc1 [Compound 18, (2S,4R)-1-((S)-17-(4-(benzo[4,5]imidazo[1,2-a]pyrimidin-2-yl)piperazin-1-yl)-2-(tert-butyl)-4,17-dioxo-6,9,12,15-tetraoxa-3-azaheptadecanoyl)-4-hydroxy-N—((S)-1-(4-(4-methylthiazol-5-yl)phenyl)ethyl)pyrrolidine-2-carboxamide] | C (>80% tau protein remaining after 72 hours of incubation with the test compound)
11 | CN(C)c1ccc(-c2ccc3cc(OCCCOCCOCCOCCOCCNc4cccc5c4C(=O)N(C4CCC(=O)NC4=O)C5=O)ccc3n2)cc1 (stereo not shown) [Compound 40, 4-(15-(2-(4-(dimethylamino)phenyl)quinolin-6-yloxy)-3,6,9,12-tetraoxapentadecylamino)-2-(2,6-dioxopiperidin-3-yl)isoindoline-1,3-dione] | C (>80% tau protein remaining after 72 hours of incubation with the test compound)
12 | Cc1ncoc1-c1ccc(CNC(=O)[C@@H]2C[C@@H](O)CN2C(=O)[C@@H](NC(=O)COCCOCCOCC(=O)N2CCN(c3ccn4c(n3)nc3ccccc34)CC2)C(C)(C)C)cc1 [Compound 13, (2S,4R)-1-((S)-14-(4-(benzo[4,5]imidazo[1,2-a]pyrimidin-2-yl)piperazin-1-yl)-2-(tert-butyl)-4,14-dioxo-6,9,12-trioxa-3-azatetradecanoyl)-4-hydroxy-N-(4-(4-methyloxazol-5-yl)benzyl)pyrrolidine-2-carboxamide] | C (>80% tau protein remaining after 72 hours of incubation with the test compound)
13 | Cc1ncsc1-c1ccc([C@H](C)NC(=O)[C@@H]2C[C@@H](O)CN2C(=O)[C@@H](NC(=O)COCCOCCOCCN2CCN(c3ccn4c(n3)nc3ccccc34)CC2)C(C)(C)C)cc1 [Compound 15, (2S,4R)-1-((S)-14-(4-(benzo[4,5]imidazo[1,2-a]pyrimidin-2-yl)piperazin-1-yl)-2-(tert-butyl)-4-oxo-6,9,12-trioxa-3-azatetradecanoyl)-4-hydroxy-N—((S)-1-(4-(4-methylthiazol-5-yl)phenyl)ethyl)pyrrolidine-2-carboxamide] | C (>80% tau protein remaining after 72 hours of incubation with the test compound)
14 | Cn1c2ccncc2c2ccc(-c3ccc(OCCOCCOCCOCCOCCNc4cccc5c4C(=O)N(C4CCC(=O)NC4=O)C5=O)nc3)cc21 (stereo not shown) [Compound 48, 2-(2,6-dioxopiperidin-3-yl)-4-(14-(5-(5-methyl-5H-pyrido[4,3-b]indol-7-yl)pyridin-2-yloxy)-3,6,9,12-tetraoxatetradecylamino)isoindoline-1,3-dione] | A (≤50% tau protein remaining after 72 hours of incubation with the test compound)
15 | Cc1ncsc1-c1ccc(CNC(=O)[C@@H]2C[C@@H](O)CN2C(=O)[C@@H](NC(=O)COCCOCCOc2ccc3nc(-c4ccc(N(C)C)cc4)ccc3c2)C(C)(C)C)cc1 [Compound 27, (2S,4R)-1-((S)-2-(2-(2-(2-(2-(4-(dimethylamino)phenyl)quinolin-6-yloxy)ethoxy)ethoxy)acetamido)-3,3-dimethylbutanoyl)-4-hydroxy-N-(4-(4-methylthiazol-5-yl)benzyl)pyrrolidine-2-carboxamide] | C (>80% tau protein remaining after 72 hours of incubation with the test compound)
16 | Cc1ncsc1-c1ccc(CNC(=O)[C@@H]2C[C@@H](O)CN2C(=O)[C@@H](NC(=O)COCCOCCOCC(O)COc2ccc3nc(-c4ccc(N(C)C)cc4)ccc3c2)C(C)(C)C)cc1 (stereo partly drawn) [Compound 43, (2S,4R)-1-((2S)-2-(tert-butyl)-15-((2-(4-(dimethylamino)phenyl)quinolin-6-yl)oxy)-14-hydroxy-4-oxo-6,9,12-trioxa-3-azapentadecanoyl)-4-hydroxy-N-(4-(4-methylthiazol-5-yl)benzyl)pyrrolidine-2-carboxamide] | C (>80% tau protein remaining after 72 hours of incubation with the test compound)
